Test results published in patent US20080275095A1, “Combination of Prostaglandin E2 Receptor Antagonists and Renin-Angiotensin System Inhibitors for Treating Renal Diseases” (Astellas Pharma Inc., priority 2004, published 2008).

System: rat uninephrectomized anti-Thy-1 nephritis model
Assay: Combination effect of captopril and FR233074 on rat uninephrectomized anti-Thy-1 nephritis model
Type: in vivo
Details: for elevation in systolic blood pressure: 10 weeks after administration of the antibody, FIG. 9; for elevation in systolic blood pressure / glomerular and tubulointerstitial injury (histological observation): versus control group; for increase in urinary excretion of protein: 24-h urine up to 24 weeks after antibody, captopril 30 mg/kg/day, FR233074 20 mg/kg/day, FIG. 3; for time from the disease induction to the renal death (time point for 1/Cr=0.1): linear extrapolation from averaged 1/Cr and 1/Cr slope, FIG. 8; for rate of decline in renal function (1/Cr slope): single agents versus control, combination versus each agent alone, FIG. 7; for glomerular and tubulointerstitial injury (histological observation): FIG. 12-13
Protocol: Male Wistar rats (6-weeks old) were used for the example. These Wistar rats were anesthetized by administration of pentobarbital and subjected to unilateral nephrectomy. Two weeks later, these rats were injected with anti-Thy-1 antibody (gift of Department of Cell Biology, Institute of Nephrology, Niigata University Graduate School of Medical and Dental Sciences, Japan) from tail vein of them to induce anti-Thy-1 nephritis. Normal group were subjected to only ventrotomy without unilateral nephrectomy and injected with saline instead of anti-Thy-1 antibody.
One week after administration of the antibody, the rats were weighted, blood of the rats were collected (0.55 ml from subclavian vein), and 24-h urine collections were performed. Then, these rats were divided into the groups based on body weight, renal function parameters (BUN (blood urea nitrogen) and serum creatinine) and urinary excretion of protein.
The agents were administered to the rats for 23 weeks from the day of the grouping. 2, 4, 6, 8, 12, 16, 20 and 24 weeks after administration of the antibody (at 24 weeks after administration of the antibody, the administration of the agents was finished), the rats were weighted, blood of the rats were collected, 24-h urine collections were performed, and then, body weight, renal function parameters and urinary excretion of protein of the rats were determined. Systemic blood pressure of each rat was also measured at 10 weeks after administration of the antibody.
An averaged value of 1/Cr in each group at one week after disease induction was plotted, and drew down linearly, based on an averaged value of 1/Cr slope in each group. A time point for 1/Cr=0.1 was calculated, and defined as time reaching renal death (time point for 1/Cr=0.1 is one of standards for introducing dialytic therapy in clinical practice).

Row | Compound | elevation in systolic blood pressure | increase in urinary excretion of protein | time from the disease induction to the renal death (time point for 1/Cr=0.1) | rate of decline in renal function (1/Cr slope) | glomerular and tubulointerstitial injury (histological observation)
1 | O=C(NS(=O)(=O)Cc1ccccc1)c1cccc(C[C@@H]2CCCC=C2c2nc(-c3ccccc3)c(-c3ccccc3)o2)c1 [FR233074, N-benzylsulfonyl-3-{[(1S)-2-(4,5-diphenyloxazol-2-yl)-2-cyclohexen-1-yl]methyl}benzamide] | no significant effect | suppressed | prolonged | decreased | extent of damage was reduced
2 | C[C@H](CS)C(=O)N1CCC[C@H]1C(=O)O [captopril] | suppressed | suppressed | prolonged | decreased | extent of damage was reduced
